molecular target: KRAS G12C and cRAF (Ras-binding domain) interaction (Homo sapiens (Human), UniProt P01116, C118S/C51S/C80L/G12C); assay: Inhibition of KRAS G12C and cRAF binding (AlphaScreen); details: GMPPNP-loaded KRAS G12C, 19-20 hours incubation with compound; read-out: IC50 (Inhibition of KRAS G12C and cRAF Binding)
Outline: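 Compounds (DMSO) preincubated 19-20 h at room temperature, then RBD with streptavidin donor and glutathione acceptor beads added in 25 mM Hepes pH 7.4, 150 mM NaCl, 5 mM MgCl2, 0.01% Triton X-100, 2% DMSO for 60-90 min. Emission 570 nm (excitation 680 nm); IC50 by 4-parameter fit. Counter-screen used biotin-AviTag-GST instead of RBD.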

Sequence of KRAS G12C and cRAF (Ras-binding domain) interaction (P01116 other isoform, or with tags, fused parts or gaps G12C/C51S/C80L/C118S): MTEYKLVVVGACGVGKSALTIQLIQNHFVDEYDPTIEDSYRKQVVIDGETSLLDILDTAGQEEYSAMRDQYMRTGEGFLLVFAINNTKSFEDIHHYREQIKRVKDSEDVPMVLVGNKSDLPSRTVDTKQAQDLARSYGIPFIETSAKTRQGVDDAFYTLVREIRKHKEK

Row | SMILES | IC50
1 | C=CC(=O)C1[C@H]2CCN(c3nc(OC[C@@H]4CCCN4C)nc4c3CCN(c3cccc5cccc(Cl)c35)C4)C[C@@H]12 (stereo in doubt) [Example 43] | 10 to 100 nM

same assay, conditions: additional exemplary compounds; KRAS G12C and cRAF binding; read-out: RAF1 RBD IC50

Row | SMILES | IC50
2 | C/C=C/C(=O)CN(C)c1nc(OC[C@@H]2CCCN2C)nc2c1CCN(c1cccc3ccccc13)C2 | > 500 nM
3 | CN(C)C(=O)/C=C/C(=O)N1CC(CN(C)c2nc(OCC34CCCN3CCC4)nc3c2CCN(c2cccc4cccc(Cl)c24)C3)C1 | > 500 nM
4 | C=CC(=O)CCOc1nc(OC[C@@H]2CCCN2C)nc2c1CCN(c1cccc3ccccc13)C2 | > 500 nM
5 | CN(C)C/C=C/C(=O)N1CC(CN(C)c2nc(OCC34CCCN3CCC4)nc3c(F)c(-c4cccc5cccc(Cl)c45)ncc23)C1 | 10 to 100 nM
6 | C=CC(=O)[C@@H]1CC[C@H]1Nc1nc(OC[C@@H]2CCCN2C)nc2c1CCN(c1cccc3ccccc13)C2 | > 500 nM
7 | C=CC(=O)N1CCC[C@@H](N(C)c2nc(OC[C@@]34CCCN3C[C@H](F)C4)nc3c2CCN(c2cccc4cccc(Cl)c24)C3)C1 | > 500 nM
8 | C#Cc1c(F)ccc2cccc(-c3ncc4c(N(C)[C@@H]5CCN(C(=O)/C=C/c6ccccn6)C5)nc(OC[C@@]56CCCN5C[C@H](F)C6)nc4c3F)c12 | > 500 nM
9 | C#Cc1c(F)ccc2cccc(-c3ncc4c(N(C)[C@@H]5CCN(C(=O)/C=C/c6cccnc6)C5)nc(OC[C@@]56CCCN5C[C@H](F)C6)nc4c3F)c12 | > 500 nM
10 | C=CC(=O)N1CC[C@@H](N(C)c2nc(OC[C@@]34CCCN3C[C@H](F)C4)nc3c2CCN(c2cccc4cccc(Cl)c24)C3)C1 | 100 to 500 nM
11 | C=CC(=O)N1CC[C@@H](C)[C@@H](Nc2nc(OC[C@@]34CCCN3C[C@H](F)C4)nc3c(F)c(-c4cccc5cccc(Cl)c45)ncc23)C1 | > 500 nM
12 | C=CC(=O)N1CCC[C@@H](Nc2nc(OC[C@@]34CCCN3C[C@H](F)C4)nc3c(F)c(-c4cccc5cccc(Cl)c45)ncc23)C1 | > 500 nM
13 | C=CC(=O)N1CC2CC(Nc3nc(OC[C@@]45CCCN4C[C@H](F)C5)nc4c(F)c(-c5cccc6cccc(Cl)c56)ncc34)C1C2 (some centres unmarked) | > 500 nM
14 | C=CC(=O)N1C[C@@H](C)C[C@@H](Nc2nc(OC[C@@]34CCCN3C[C@H](F)C4)nc3c(F)c(-c4cccc5cccc(Cl)c45)ncc23)C1 | > 500 nM
15 | C=CC(=O)N1C[C@H](C)C[C@H](Nc2nc(OC[C@@]34CCCN3C[C@H](F)C4)nc3c(F)c(-c4cccc5cccc(Cl)c45)ncc23)C1 | > 500 nM
16 | C=CC(=O)N1CC[C@H](F)[C@@H](N(C)c2nc(OC[C@@]34CCCN3C[C@H](F)C4)nc3c(F)c(-c4cccc5cccc(Cl)c45)ncc23)C1 | > 500 nM
17 | C=CC(=O)N1CC[C@@H](F)[C@@H](N(C)c2nc(OC[C@@]34CCCN3C[C@H](F)C4)nc3c(F)c(-c4cccc5cccc(Cl)c45)ncc23)C1 | > 500 nM
18 | Cc1noc(/C=C/C(=O)NCCN(C)c2nc(OCC34CCCN3CCC4)nc3c2CCN(c2cccc4cccc(Cl)c24)C3)n1 | 100 to 500 nM
19 | C=CC(=O)N1CCCC1CNc1nc(OC[C@@]23CCCN2C[C@H](F)C3)nc2c(F)c(-c3cccc4cccc(Cl)c34)ncc12 (some centres unmarked) | > 500 nM
20 | C=CC(=O)N1CC[C@@H](O)[C@H](N(C)c2nc(OC[C@@]34CCCN3C[C@H](F)C4)nc3c(F)c(-c4cccc5cccc(Cl)c45)ncc23)C1 | > 500 nM
21 | CN(CCS(=O)(=O)/C=C/CN1CCC(F)(F)C1)c1nc(OCC23CCCN2CCC3)nc2c1CCN(c1cccc3cccc(Cl)c13)C2 | > 500 nM
22 | CN(c1nc(OCC23CCCN2CCC3)nc2c1CCN(c1cccc3cccc(Cl)c13)C2)[C@@H]1CCN(C(=O)/C=C/CN2CC(F)(F)C2)C1 | 100 to 500 nM
23 | C#Cc1c(F)ccc2cccc(-c3ncc4c(N(C)[C@H]5CCN(C(=O)C=C)C5)nc(OC[C@@]56CCCN5C[C@H](F)C6)nc4c3F)c12 | 100 to 500 nM
24 | CN1CCC[C@H]1COc1nc(N(C)[C@@H]2CCN(C(=O)/C=C/CN3CC(F)(F)C3)C2)c2cnc(-c3cccc4cccc(Cl)c34)c(F)c2n1 | 100 to 500 nM
25 | CN(c1nc(OCC23CCCN2CCC3)nc2c1CCN(c1cccc3ccc(F)c(Cl)c13)C2)[C@@H]1CCN(C#N)C1 | 10 to 100 nM
26 | C#Cc1c(F)ccc2cccc(-c3ncc4c(N(C)[C@H]5CCN(C(=O)C=C)C5)nc(OC[C@]56CCCN5C[C@H](F)C6)nc4c3F)c12 | > 500 nM
27 | C=CC(=O)N1CC(CN(C)c2nc(OC[C@@]34CCCN3C[C@H](F)C4)nc3c(F)c(-c4cccc5cccc(Cl)c45)ncc23)C1 | 10 to 100 nM
28 | CN(CCS(=O)(=O)/C=C/CN1CC(F)(F)C1)c1nc(OC[C@@H]2CCCN2C)nc2c(F)c(-c3cccc4cccc(Cl)c34)ncc12 | > 500 nM
29 | COCCN(C)C/C=C/S(=O)(=O)CCN(C)c1nc(OCC23CCCN2CCC3)nc2c(F)c(-c3cccc4cccc(Cl)c34)ncc12 | 10 to 100 nM

More lines, now with the values ahead:

Row | IC50 | SMILES
30 | > 500 nM | CN(C)C(=O)/C=C/C(=O)N1CC[C@@H](N(C)c2nc(OCC34CCCN3CCC4)nc3c(F)c(-c4cccc5cccc(Cl)c45)ncc23)C1
31 | 10 to 100 nM | C=CC(=O)CCN(C)c1nc(OC[C@@H]2CCCN2C)nc2c1CCN(c1cccc3cccc(Cl)c13)C2
32 | > 500 nM | CN(C)C(=O)/C=C/C(=O)N1CC(CN(C)c2nc(OCC34CCCN3CCC4)nc3c(F)c(-c4cccc5cccc(Cl)c45)ncc23)C1
33 | < 10 nM | C=CC(=O)CCCN(C)c1nc(OC[C@@H]2CCCN2C)nc2c1CCN(c1cccc3cccc(Cl)c13)C2
34 | 10 to 100 nM | C=CS(=O)(=O)C1CCC(N(C)c2nc(OCC34CCCN3CCC4)nc3c2CCN(c2cccc4cccc(Cl)c24)C3)C1 (centres unmarked)
35 | < 10 nM | CN(C)C/C=C/S(=O)(=O)CCN(C)c1nc(OCC23CCCN2CCC3)nc2c1CCN(c1cccc3ccc(F)c(Cl)c13)C2
36 | > 500 nM | C=CC(=O)COc1nc(OC[C@@H]2CCCN2C)nc2c1CCN(c1cccc3ccccc13)C2
37 | > 500 nM | C=CC(=O)CCNc1nc(OC[C@@H]2CCCN2C)nc2c1CCN(c1cccc3ccccc13)C2
38 | 10 to 100 nM | CCN(C/C=C/S(=O)(=O)CCN(C)c1nc(OCC23CCCN2CCC3)nc2c(F)c(-c3cccc4cccc(Cl)c34)ncc12)CCOC
39 | 100 to 500 nM | C=CC(=O)N1CC[C@@H](N(C)c2nc(OCC34CCCN3CCC4)nc3c(F)c(-c4cccc5cccc(Cl)c45)ncc23)C1
40 | 10 to 100 nM | C=CS(=O)(=O)C1CCCN(c2nc(OCC34CCCN3CCC4)nc3c2CCN(c2cccc4cccc(Cl)c24)C3)C1 (centres unmarked)
41 | 100 to 500 nM | CN(C)C/C=C/C(=O)N1CC[C@@H](N(C)c2nc(OC[C@@H]3CCCN3C)nc3c2CCN(c2cccc4cccc(Cl)c24)C3)C1
42 | 10 to 100 nM | C=CC(=O)N1CC[C@@H](N(C)c2nc(OC[C@@]34CCCN3C[C@H](F)C4)nc3c(F)c(-c4cccc5cccc(Cl)c45)ncc23)C1
43 | > 500 nM | Cc1cc(/C=C/C(=O)N2CCC[C@@H](N(C)c3nc(OC[C@@]45CCCN4C[C@H](F)C5)nc4c(F)c(-c5cccc6cccc(Cl)c56)ncc34)C2)nc(C)n1
44 | 100 to 500 nM | C#Cc1c(F)ccc2cccc(-c3ncc4c(N(C)[C@@H]5CCCN(C(=O)/C=C/c6cc(C)nc(C)n6)C5)nc(OC[C@@]56CCCN5C[C@H](F)C6)nc4c3F)c12
45 | > 500 nM | C=CC(=O)N1CC[C@H](C)[C@H](Nc2nc(OC[C@@]34CCCN3C[C@H](F)C4)nc3c(F)c(-c4cccc5cccc(Cl)c45)ncc23)C1
46 | 10 to 100 nM | C=CC(=O)N1CC[C@H](O)[C@@H](N(C)c2nc(OC[C@@]34CCCN3C[C@H](F)C4)nc3c(F)c(-c4cccc5cccc(Cl)c45)ncc23)C1

Row | IC50 | SMILES
47 | > 500 nM | C=CC(=O)N1CCC(CNc2nc(OC[C@@]34CCCN3C[C@H](F)C4)nc3c(F)c(-c4cccc5cccc(Cl)c45)ncc23)C1 (some centres unmarked)
48 | > 500 nM | Cc1nc(/C=C/C(=O)NCCN(C)c2nc(OCC34CCCN3CCC4)nc3c2CCN(c2cccc4cccc(Cl)c24)C3)no1
49 | > 500 nM | C=CC(=O)N1CCC(CN(C)c2nc(OC[C@@]34CCCN3C[C@H](F)C4)nc3c(F)c(-c4cccc5cccc(Cl)c45)ncc23)C1 (some centres unmarked)
50 | > 500 nM | C=CC(=O)N1C[C@H](C)C[C@@H](Nc2nc(OC[C@@]34CCCN3C[C@H](F)C4)nc3c(F)c(-c4cccc5cccc(Cl)c45)ncc23)C1
51 | > 500 nM | C=CC(=O)N1CCCC1CN(C)c1nc(OC[C@@]23CCCN2C[C@H](F)C3)nc2c(F)c(-c3cccc4cccc(Cl)c34)ncc12 (some centres unmarked)
52 | 10 to 100 nM | CN(C)C/C=C/C(=O)N1CC[C@@H](N(C)c2nc(OCC34CCCN3CCC4)nc3c(F)c(-c4cccc5cccc(Cl)c45)ncc23)C1
53 | < 10 nM | CN(C)C/C=C/S(=O)(=O)CCN(C)c1nc(OC[C@@]23CCCN2C[C@H](F)C3)nc2c1CCN(c1cccc3cccc(Cl)c13)C2
54 | 100 to 500 nM | CN(C)C/C=C/C(=O)N1CC[C@@H](N(C)c2nc(OCC34CCCN3CCC4)nc3c2CCN(c2cccc4ccc(F)c(Cl)c24)C3)C1
55 | 10 to 100 nM | CCN(C/C=C/S(=O)(=O)CCN(C)c1nc(OCC23CCCN2CCC3)nc2c1CCN(c1cccc3cccc(Cl)c13)C2)CCOC
56 | > 500 nM | C=CC(=O)N1CCC[C@@H](N(C)c2nc(OC[C@@]34CCCN3C[C@H](F)C4)nc3c(F)c(-c4cccc5cccc(Cl)c45)ncc23)C1
57 | 100 to 500 nM | C=CC(=O)N1CC[C@@H](N(C)c2nc(OCC34CCCN3CCC4)nc3c2CCN(c2cccc4ccc(F)c(Cl)c24)C3)C1
58 | 10 to 100 nM | C=CC(=O)N1CC[C@@H](N(C)c2nc(OC[C@@]34CCCN3C[C@H](F)C4)nc3c2CCN(c2cccc4ccc(F)c(Cl)c24)C3)C1
59 | 10 to 100 nM | CN(c1nc(OC[C@@]23CCCN2C[C@H](F)C3)nc2c(F)c(-c3cccc4cccc(Cl)c34)ncc12)[C@@H]1CCN(C#N)C1
60 | 100 to 500 nM | CN(C)C/C=C/C(=O)N1CC(CN(C)c2nc(OCC34CCCN3CCC4)nc3c2CCN(c2cccc4cccc(Cl)c24)C3)C1
61 | 10 to 100 nM | CN(c1nc(OCC23CCCN2CCC3)nc2c1CCN(c1cccc3cccc(Cl)c13)C2)[C@@H]1CCN(C(=O)/C=C/CN2CC(F)C2)C1
62 | < 10 nM | CCN(CC)C/C=C/S(=O)(=O)CCN(C)c1nc(OCC23CCCN2CCC3)nc2c(F)c(-c3cccc4cccc(Cl)c34)ncc12

Source: US20250019387A1 (Frontier Medicines Corporation, priority 0001, published 2025)
